This is an account of results in patent US11028090B2 (Dong Wha Pharm. Co., Ltd., priority 2017, dated 2021).

This assay addresses BRD4 (BD1+BD2) bromodomain (Homo sapiens (Human), UniProt O60885). Kind of assay: BRD4 binding inhibition (AlphaScreen, GST-BRD4 vs tetraacetylated histone H4 peptide). A digest of the protocol: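 GST-BRD4 (BD1+BD2) and biotinylated tetraacetyl-histone H4 peptide, each at 100 nM in HEPES pH 7.4 buffer with BSA and DTT, were combined with compound. Glutathione acceptor and streptavidin donor beads were added, then incubated 30 min at room temperature in the dark. Read-out was AlphaScreen signal.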
A general note: In Alpha technology, singlet oxygen from a donor bead excites a nearby acceptor bead.

[1] abbreviates: GST-BRD4 (BD1+BD2) / biotinylated acetyl-histone H4 (Lys5,8,12,16) peptide, read-out: IC50, BRD4 binding inhibition.
The mark [2] stands for this setting: GST-BRD4 (BD1+BD2) vs biotinylated acetyl-histone H4 peptide, AlphaScreen, read-out: BRD4 IC50.

“And” between values parts separate entries of the source, which are not always exact repeats. Equal values may be shown once. Read-outs that look alike come from different tables or passages of the source.

One may read the IC50 as the concentration that gives 50% inhibition. With `CC(=O)OCC(=O)NCCCCNc1nc2cc3c(cc2n2c(C)nnc12)OCCO3` [Example 184], the IC50 by setting is: under setting [1], at most 50 nM; under setting [2], 30 nM.

With `COc1cc2c(nc(NCCCCNC(=O)CC(C)C)c3nnc(C)n32)c(OC)c1OC` [Example 195, 3-methyl-N-[4-(6,7,8-trimethoxy-1-methyl-[1,2,4]triazolo[4,3-a]quinoxaline-4-ylamino)-butyl]-butyramide], the IC50 under setting [2] turned out to be 69 nM.

On to `Cc1nnc2c(NCCCCNC(=O)OC(C)(C)C)nc3cc(C(=O)O)ccc3n12` [Example 200, 4-[(4-tert-butoxycarbamoylamino)-butylamino]-1-methyl-[1,2,4]triazolo[4,3-a]quinoxaline-7-carboxylic acid], for which, under setting [2], the IC50 worked out at 71 nM.

Regarding `Cc1nnc2c(NCCCCNC(=O)CC(C)C)nc3cc(C(=O)O)ccc3n12` [Example 201, 1-methyl-4-[4-(3-methyl-butyrylamino)-butylamino]-[1,2,4]triazolo[4,3-a]quinoxaline-7-carboxylic acid], the IC50 reads like this: under setting [1], at most 50 nM; under setting [2], 26 nM.

In the case of `Cc1nnc2c(NCCCCNC(=O)OC(C)(C)C)nc3cc(C(=O)NC(C)(C)C)ccc3n12` [Example 203, [4-(7-tert--butylcarbamoyl-1-methyl-[1,2,4]triazolo[4,3-a]quinoxaline-4-ylamino)-butyl]-carbamic acid-tert-butylester], the 50% inhibitory concentration (IC50) reads like this: under setting [1], at most 50 nM; under setting [2], 42 nM.

Take `Cc1nnc2c(NCCCCNC(=O)OC(C)(C)C)nc3cc(C(=O)NCc4ccc(Cl)cc4)ccc3n12` [Example 211, {4-[7-(4-chloro-benzylcarbamoyl)-1-methyl-[1,2,4]triazolo[4,3-a]quinoxaline-4-ylamino]-butyl}-carbamic acid-tert-butylester]: the IC50 reads like this: under setting [1], at most 50 nM; under setting [2], 34 nM.

Turning to `Cc1nnc2c(NCCCCN)nc3cc(-c4nc5ccccc5n4C)ccc3n12` [Example 221, N^1-[1-methyl-7-(1-methyl-1H-benzoimidazole-2-yl)-[1,2,4]triazolo[4,3-a]quinoxaline-4-yl]-butane-1,4-diamine ditrifluoroacetic acid], under setting [2], the IC50 came out at 62 nM.

On to `CC(=O)OC(C)(C)C(=O)NCCCCNc1nc2cc(-c3nc4ccccc4n3C)ccc2n2c(C)nnc12` [Example 231, acetic acid-1-{4-[7-(1-methyl-1H-benzoimidazole-2-yl)-1-methyl-[1,2,4]triazolo[4,3-a]quinoxaline-4-ylamino]-butylcarbamoyl}-1-methyl-ethylester], for which the IC50 is at most 50 nM under setting [1] and 14 nM under setting [2].

With `Cc1nnc2c(NCCCCNC(=O)C(C)(C)O)nc3cc(-c4nc5ccccc5n4C)ccc3n12` [Example 232, 2-hydroxy-N-{4-(7-(1-methyl-1H-benzoimidazole-2-yl)-1-methyl-[1,2,4]triazolo[4,3-a]quinoxaline-4-ylamino)-butyl}-2-methyl-propionamide], the IC50 reads like this: under setting [1], at most 50 nM; under setting [2], 33 nM.

Take `COCCn1c(-c2ccc3c(c2)nc(NCCCCNC(=O)CC(C)C)c2nnc(C)n23)nc2ccccc21` [Example 241, N-(4-{7-[1-(2-methoxy-ethyl)-1H-benzoimidazole-2-yl]-1-methyl-[1,2,4]triazolo[4,3-a]quinoxaline-4-ylamino}-butyl)-3-methyl-butyramide]: the IC50 is at most 10 nM under setting [1] and 7 nM under setting [2].

Consider `Cc1nnc2c(NCCCCNC(=O)OC(C)(C)C)nc3cc(N)ccc3n12` [Example 243, [4-(7-amino-1-methyl-[1,2,4]triazolo[4,3-a]quinoxaline-4-ylamino)-butyl]-carbamic acid-tert-butylester], for which the IC50 under setting [2] was 65 nM.

Turning to `Cc1nnc2c(NCCCCNC(=O)OC(C)(C)C)nc3cc(C(=O)c4ccccc4)ccc3n12` [Example 260, [4-(7-benzoyl-1-methyl-[1,2,4]triazolo[4,3-a]quinoxaline-4-ylamino)-butyl]-carbamic acid-tert-butylester], the IC50 under setting [2] stood at 62 nM.

As to `COc1ccc(C(=O)c2ccc3c(c2)nc(NCCCCNC(=O)OC(C)(C)C)c2nnc(C)n23)cc1` [Example 262, {4-[7-(4-methoxy-benzoyl)-1-methyl-[1,2,4]triazolo[4,3-a]quinoxaline-4-ylamino]-butyl}-carbamic acid-tert-butylester], the IC50 under setting [2] came out at 72 nM.

With `Cc1nnc2c(NCCCCN)nc3cc(OC(F)(F)F)ccc3n12` [Example 270, N^1-(1-methyl-7-trifluoromethoxy-[1,2,4]triazolo[4,3-a]quinoxaline-4-yl)-butane-1,4-diamine ditrifluoroacetic acid], the IC50 under setting [2] turned out to be 85 nM.

Regarding `COc1ccc2c(c1)nc(NCCCCNC(=O)[C@@H](C)O)c1nnc(C)n12` [Example 295, 2-(R)-hydroxy-N-[4-(7-methoxy-1-methyl-[1,2,4]triazolo[4,3-a]quinoxaline-4-ylamino)-butyl]-propaneamide], the IC50 is at most 50 nM under setting [1] and 33 nM under setting [2].

Turning to `COc1ccc2c(c1)nc(NCCCCNC(=O)C(C)(C)OC(C)=O)c1nnc(C)n12` [Example 296, acetic acid-1-[4-(7-methoxy-1-methyl-[1,2,4]triazolo[4,3-a]quinoxaline-4-ylamino)-butylcarbamoyl]-1-methyl-ethylester], the IC50 is at most 50 nM under setting [1]; 96 nM and 27 nM under setting [2].

As for `COc1ccc2c(c1)nc(NCCCCNC(=O)C(C)(C)O)c1nnc(C)n12` [Example 297, 2-hydroxy-N-[4-(7-methoxy-1-methyl-[1,2,4]triazolo[4,3-a]quinoxaline-4-ylamino)-butyl]-2-methyl-propionamide], the IC50 by setting is: under setting [1], at most 50 nM; under setting [2], 27 nM.

`COc1ccc2c(c1)nc(NCCCCNC(=O)[C@@H](OC)C(C)C)c1nnc(C)n12` [Example 301, 2-(S)-methoxy-N-[4-(7-methoxy-1-methyl-[1,2,4]triazolo[4,3-a]quinoxaline-4-ylamino)-butyl]-3-methyl-butyramide]: the IC50 runs as follows: under setting [1], at most 50 nM; under setting [2], 16 nM.

Consider `COc1ccc2c(c1)nc(NCCCCNC(=O)COC(C)=O)c1nnc(C)n12` [Example 303, acetic acid-[4-(7-methoxy-1-methyl-[1,2,4]triazolo[4,3-a]quinoxaline-4-ylamino)-butylcarbamoyl]-methylester], for which, under setting [2], the IC50 was 63 nM.

In the case of `CCOC(=O)CC(=O)NCCCCNc1nc2cc(OC)ccc2n2c(C)nnc12` [Example 305, N-[4-(7-methoxy-1-methyl-[1,2,4]triazolo[4,3-a]quinoxaline-4-ylamino)-butyl]-malonamic acid ethylester], the IC50 under setting [1] was at most 50 nM and the IC50 under setting [2] was 41 nM.

Regarding `COc1ccc2c(c1)nc(NCCCCNC(=O)[C@H](C(C)C)N1CCOCC1)c1nnc(C)n12` [Example 314, N-[4-(7-methoxy-1-methyl-[1,2,4]triazolo[4,3-a]quinoxaline-4-ylamino)-butyl]-3-methyl-2-(S)-morpholine-4-yl-butyramide], under setting [2], the IC50 was found to be 56 nM.

Consider `COc1ccc2c(c1)nc(NCCCCNC(=O)[C@H](C(C)C)N1CCC(CCO)CC1)c1nnc(C)n12` [Example 317, 2-(S)-[4-(2-hydroxy-ethyl)-piperidine-1-yl]-N-[4-(7-methoxy-1-methyl-[1,2,4]triazolo[4,3-a]quinoxaline-4-ylamino)-butyl]-3-methyl-butyramide], for which the IC50 by setting is: under setting [1], at most 50 nM; under setting [2], 31 nM.

On to `COc1ccc2c(c1)nc(NCCCCNC(=O)[C@@H](NC(=O)[C@H](C)O)C(C)C)c1nnc(C)n12` [Example 324, 2-(S)-(2-(S)-hydroxy-propionylamino)-N-[4-(7-methoxy-1-methyl-[1,2,4]triazolo[4,3-a]quinoxaline-4-ylamino)-butyl]-3-methyl-butyramide], for which the IC50 by setting is: under setting [1], at most 10 nM; under setting [2], 7 nM.

Consider `COc1ccc2c(c1)nc(NCCCCNC(=O)[C@H](Cc1ccc(O)cc1)NC(=O)OC(C)(C)C)c1nnc(C)n12` [Example 325, (S)-{2-(4-hydroxy-phenyl)-1-[4-(7-methoxy-1-methyl-[1,2,4]triazolo[4,3-a]quinoxaline-4-ylamino)-butylcarbamoyl]-ethyl}-carbamic acid-tert-butylester], for which, under setting [2], the IC50 was determined as 71 nM.

Take `COc1ccc2c(c1)nc(NCCCCNC(=O)[C@@H](N)Cc1ccc(O)cc1)c1nnc(C)n12` [Example 326, 2-(S)-amino-3-(4-hydroxy-phenyl)-N-[4-(7-methoxy-1-methyl-[1,2,4]triazolo[4,3-a]quinoxaline-4-ylamino)-butyl]-propionamide]: under setting [2], the IC50 is 64 nM.

For the compound `COc1ccc2c(c1)nc(NCCCCNC(=O)N(C)C)c1nnc(C)n12` [Example 334, 3-[4-(7-methoxy-1-methyl-[1,2,4]triazolo[4,3-a]quinoxaline-4-ylamino)-butyl]-1,1-dimethyl-urea], the IC50 under setting [2] is 60 nM.

With `COc1cc2nc(NCCCCNC(=O)CC(C)C)c3nnc(C)n3c2cc1Cc1ccc([N+](=O)[O-])cc1` [Example 339, N-{4-[7-methoxy-1-methyl-8-(4-nitro-benzyl)-[1,2,4]triazolo[4,3-a]quinoxaline-4-ylamino]-butyl}-3-methyl-butyramide], the IC50 reads like this: under setting [1], at most 50 nM; under setting [2], 46 nM.

`Cc1nnc2c(NCCCCNC(=O)CC(C)C)nc3cc(OCc4ccc(-c5nn[nH]n5)cc4)ccc3n12` [Example 348, 3-methyl-N-(4-{1-methyl-7-[4-(2H-tetrazol-5-yl)-benzyloxy]-[1,2,4]triazolo[4,3-a]quinoxaline-4-ylamino}-butyl)-butyramide]: under setting [2], the IC50 stood at 100 nM.

Regarding `COCCOc1ccc2c(c1)nc(NCCCCNC(=O)OC(C)(C)C)c1nnc(C)n12` [Example 363, {4-[7-(2-methoxy-ethoxy)-1-methyl-[1,2,4]triazolo[4,3-a]quinoxaline-4-ylamino]-butyl}-carbamic acid-tert-butylester], the IC50 reads like this: under setting [1], at most 50 nM; under setting [2], 16 nM.
